Tests used:
COLO 205 = assay: Antiproliferative activity against human COLO205 cells harboring BRAF V600E/D mutant measured after 4 days; assay type: functional, cell-based; conditions: COLO 205, 96 h
hERG (KCNH2) [1] = molecular target: T1, hERG (KCNH2) (Homo sapiens, UniProt Q12809); assay: Inhibition of human ERG at 5 mg/ml by binding assay relative to control; set-up: dose or concentration left out as unconfirmed
[2] = molecular target: Mitogen-activated protein kinase 3 (Homo sapiens, UniProt P27361); assay: Inhibition of ERK1 (unknown origin) using peptide substrate measured after 45 mins by IMAP assay
Sequence of Mitogen-activated protein kinase 3 (P27361 whole entry): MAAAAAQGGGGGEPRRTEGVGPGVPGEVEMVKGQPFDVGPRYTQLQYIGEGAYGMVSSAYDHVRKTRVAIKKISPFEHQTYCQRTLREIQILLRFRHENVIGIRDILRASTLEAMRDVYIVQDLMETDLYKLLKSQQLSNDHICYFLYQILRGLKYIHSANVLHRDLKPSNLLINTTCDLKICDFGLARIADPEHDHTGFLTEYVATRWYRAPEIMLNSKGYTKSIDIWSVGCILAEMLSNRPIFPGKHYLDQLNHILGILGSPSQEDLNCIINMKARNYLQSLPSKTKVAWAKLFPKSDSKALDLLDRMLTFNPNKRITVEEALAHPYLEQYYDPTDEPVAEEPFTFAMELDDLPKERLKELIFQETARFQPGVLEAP

HT-29 = assay: Antiproliferative activity against human HT-29 cells harboring BRAF V600E/D mutant measured after 4 days; assay type: functional, cell-based; conditions: HT-29, 96 h
hERG (KCNH2) [3] = molecular target: T1, hERG (KCNH2); assay: Inhibition of human ERG at 1.5 mg/ml by binding assay relative to control; set-up: dose or concentration left out as unconfirmed
[4] = Drug metabolism in bile duct-cannulated rat urine assessed as conjugation at 10 mg/kg, iv by LC/ESI-MS/MS analysis; assay type: ADME, organism-based; conditions: in vivo
[5] = Drug metabolism in bile duct-cannulated rat urine assessed as oxidative dealkylation by measuring loss of isopropyl group at 10 mg/kg, iv by LC/ESI-MS/MS analysis; assay type: ADME, organism-based; conditions: in vivo
[6] = Drug metabolism in bile duct-cannulated rat bile assessed as oxidation at 10 mg/kg, iv by LC/ESI-MS/MS analysis; assay type: ADME, organism-based; conditions: in vivo
[7] = Drug metabolism in bile duct-cannulated rat plasma assessed as conjugation at 10 mg/kg, iv by LC/ESI-MS/MS analysis; assay type: ADME, organism-based; conditions: in vivo
[8] = Drug metabolism in bile duct-cannulated rat plasma assessed as oxidative dealkylation by measuring loss of isopropyl group at 10 mg/kg, iv by LC/ESI-MS/MS analysis; assay type: ADME, organism-based; conditions: in vivo
[9] = Drug metabolism in bile duct-cannulated rat urine assessed as oxidative dealkylation by measuring amide cleavage at 10 mg/kg, iv by LC/ESI-MS/MS analysis; assay type: ADME, organism-based; conditions: in vivo
[10] = Drug metabolism in bile duct-cannulated rat plasma assessed as glutathione conjugation at 10 mg/kg, iv by LC/ESI-MS/MS analysis; assay type: ADME, organism-based; conditions: in vivo
[11] = Drug metabolism in bile duct-cannulated rat bile assessed as conjugation at 10 mg/kg, iv by LC/ESI-MS/MS analysis; assay type: ADME, organism-based; conditions: in vivo
[12] = Drug metabolism in bile duct-cannulated rat bile assessed as oxidative dealkylation by measuring amide cleavage at 10 mg/kg, iv by LC/ESI-MS/MS analysis; assay type: ADME, organism-based; conditions: in vivo
[13] = Drug metabolism in bile duct-cannulated rat plasma assessed as oxidative dealkylation by measuring amide cleavage at 10 mg/kg, iv by LC/ESI-MS/MS analysis; assay type: ADME, organism-based; conditions: in vivo
[14] = Drug metabolism in bile duct-cannulated rat urine assessed as oxidation at 10 mg/kg, iv by LC/ESI-MS/MS analysis; assay type: ADME, organism-based; conditions: in vivo
[15] = Drug metabolism in bile duct-cannulated rat urine assessed as glutathione conjugation at 10 mg/kg, iv by LC/ESI-MS/MS analysis; assay type: ADME, organism-based; conditions: in vivo
[16] = Drug metabolism in bile duct-cannulated rat plasma assessed as oxidation at 10 mg/kg, iv by LC/ESI-MS/MS analysis; assay type: ADME, organism-based; conditions: in vivo
[17] = Drug metabolism in bile duct-cannulated rat bile assessed as oxidative dealkylation by measuring loss of isopropyl group at 10 mg/kg, iv by LC/ESI-MS/MS analysis; assay type: ADME, organism-based; conditions: in vivo
hERG (KCNH2) [18] = molecular target: T1, hERG (KCNH2); assay: Inhibition of human ERG at 10 uM by IonWork assay relative to control
hERG (KCNH2) [19] = molecular target: T1, hERG (KCNH2); assay: Inhibition of human ERG at 1 uM by IonWork assay relative to control
[20] = molecular target: Mitogen-activated protein kinase 1 (Homo sapiens, UniProt P28482); assay: Inhibition of ERK2 (unknown origin) using peptide substrate measured after 45 mins by IMAP assay
Sequence of Mitogen-activated protein kinase 1 (P28482 whole entry): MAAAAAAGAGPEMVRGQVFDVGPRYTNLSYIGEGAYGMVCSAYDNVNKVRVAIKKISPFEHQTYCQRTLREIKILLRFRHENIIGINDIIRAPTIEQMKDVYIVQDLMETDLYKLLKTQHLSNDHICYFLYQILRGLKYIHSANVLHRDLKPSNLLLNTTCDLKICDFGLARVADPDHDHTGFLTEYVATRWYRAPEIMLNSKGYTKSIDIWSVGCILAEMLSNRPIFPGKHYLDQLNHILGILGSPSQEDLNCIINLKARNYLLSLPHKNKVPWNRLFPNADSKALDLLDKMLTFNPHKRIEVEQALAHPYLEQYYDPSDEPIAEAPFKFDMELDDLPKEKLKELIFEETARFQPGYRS

[21] = AUC in rat at 10 mg/kg; assay type: ADME, organism-based; conditions: in vivo
[22] = Clearance in dog hepatocytes assessed per million cells; assay type: ADME, cell-based, Canis lupus familiaris, Hepatocyte
[23] = Clearance in human hepatocytes assessed per million cells; assay type: ADME, cell-based, Hepatocyte
[24] = AUC in dog at 10 mg/kg; assay type: ADME, organism-based, Canis lupus familiaris; conditions: in vivo
Cytochrome P450 3A4 = Cytochrome P450 3A4 (Homo sapiens, UniProt P08684); assay: Inhibition of CYP3A4 (unknown origin) preincubated followed by substrate addition; assay type: ADME
Sequence of Cytochrome P450 3A4 (P08684 whole entry): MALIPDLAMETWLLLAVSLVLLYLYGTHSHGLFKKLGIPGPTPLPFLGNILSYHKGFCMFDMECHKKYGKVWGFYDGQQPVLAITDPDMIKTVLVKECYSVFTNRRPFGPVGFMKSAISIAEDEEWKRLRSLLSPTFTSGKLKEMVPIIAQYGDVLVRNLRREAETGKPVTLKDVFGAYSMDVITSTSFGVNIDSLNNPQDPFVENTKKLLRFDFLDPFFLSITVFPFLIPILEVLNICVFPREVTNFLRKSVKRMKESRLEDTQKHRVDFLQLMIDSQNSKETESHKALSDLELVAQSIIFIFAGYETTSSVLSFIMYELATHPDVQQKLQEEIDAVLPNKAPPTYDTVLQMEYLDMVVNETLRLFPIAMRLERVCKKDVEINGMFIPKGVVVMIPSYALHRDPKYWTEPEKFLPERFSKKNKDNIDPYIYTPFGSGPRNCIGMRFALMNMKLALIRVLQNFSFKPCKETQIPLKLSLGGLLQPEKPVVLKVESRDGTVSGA

[25] = Mean residence time in rat; assay type: ADME, organism-based; conditions: in vivo
[26] = Half life in rat; assay type: ADME, organism-based; conditions: in vivo
[27] = Plasma clearance in rat; assay type: ADME, organism-based

T1 sequence (Q12809 whole entry): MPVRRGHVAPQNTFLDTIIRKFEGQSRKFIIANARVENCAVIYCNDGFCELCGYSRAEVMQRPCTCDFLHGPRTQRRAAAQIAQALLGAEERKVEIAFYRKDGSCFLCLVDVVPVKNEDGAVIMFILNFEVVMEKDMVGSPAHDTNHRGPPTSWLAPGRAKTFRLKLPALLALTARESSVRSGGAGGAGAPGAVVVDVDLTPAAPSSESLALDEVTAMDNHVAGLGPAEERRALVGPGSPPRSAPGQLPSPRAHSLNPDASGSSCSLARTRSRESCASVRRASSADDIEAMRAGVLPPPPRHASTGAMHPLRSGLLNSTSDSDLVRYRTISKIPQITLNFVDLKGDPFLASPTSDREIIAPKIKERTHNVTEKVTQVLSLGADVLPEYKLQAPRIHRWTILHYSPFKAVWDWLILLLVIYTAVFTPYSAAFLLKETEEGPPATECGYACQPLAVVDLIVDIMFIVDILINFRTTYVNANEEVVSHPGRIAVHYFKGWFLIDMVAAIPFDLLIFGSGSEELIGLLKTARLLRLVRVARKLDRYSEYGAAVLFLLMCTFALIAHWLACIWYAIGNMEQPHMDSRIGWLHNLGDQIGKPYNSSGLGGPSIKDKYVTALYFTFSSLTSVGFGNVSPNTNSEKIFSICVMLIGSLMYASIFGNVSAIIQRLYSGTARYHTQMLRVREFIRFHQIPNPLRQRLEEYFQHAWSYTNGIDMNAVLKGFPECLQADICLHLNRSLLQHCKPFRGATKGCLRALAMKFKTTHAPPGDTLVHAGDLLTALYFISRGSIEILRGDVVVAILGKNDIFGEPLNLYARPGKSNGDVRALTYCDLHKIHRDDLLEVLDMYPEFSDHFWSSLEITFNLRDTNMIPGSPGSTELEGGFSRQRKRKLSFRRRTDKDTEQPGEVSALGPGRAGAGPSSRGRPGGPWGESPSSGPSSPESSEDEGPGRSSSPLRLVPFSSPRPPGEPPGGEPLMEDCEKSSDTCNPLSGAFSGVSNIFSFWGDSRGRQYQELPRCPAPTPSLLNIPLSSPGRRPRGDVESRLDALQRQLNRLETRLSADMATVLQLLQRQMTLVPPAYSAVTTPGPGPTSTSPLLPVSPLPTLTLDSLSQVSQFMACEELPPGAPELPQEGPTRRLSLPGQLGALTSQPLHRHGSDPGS

SMILES | IC50 (COLO 205) | inhibition (hERG (KCNH2) [1]) | IC50 [2] | IC50 (HT-29) | inhibition (hERG (KCNH2) [3]) | IC50 [20] | also measured
CS[C@@]1(C(=O)Nc2ccc3[nH]nc(-c4ccc(F)cc4)c3c2)CCN(CC(=O)N2CCN(c3ccc(-c4ncccn4)cc3)CC2)C1 | 47 nM | 47% | 25 nM | 87 nM | 3% |  | 
[3H]c1cc(OC(C)C)nc([3H])c1-c1n[nH]c2ccc(NC(=O)[C@]3(SC)CCN(CC(=O)N4CC=C(c5ccc(-c6ncn(C)n6)cc5)CC4)C3)cc12 |  |  |  |  |  |  | Drug metabolism [4]: Metabolite_Detected; Drug metabolism [5]: Metabolite_Detected; Drug metabolism [6]: Metabolite_Detected; Drug metabolism [7]: Metabolite_Detected; Drug metabolism [8]: Metabolite_Detected; Drug metabolism [9]: Metabolite_Detected; Drug metabolism [10]: Metabolite_Notdetected; Drug metabolism [11]: Metabolite_Detected; Drug metabolism [12]: Metabolite_Detected; Drug metabolism [13]: Metabolite_Detected; Drug metabolism [14]: Metabolite_Detected; Drug metabolism [15]: Metabolite_Notdetected; Drug metabolism [16]: Metabolite_Detected; Drug metabolism [17]: Metabolite_Detected
COc1cc(-c2n[nH]c3ccc(NC(=O)[C@]4(SC)CCN(CC(=O)N5CC=C(c6ccc(-c7ncccn7)cc6)CC5)C4)cc23)ccn1 | 34 nM | 15% | 19 nM | 60 nM | 2% | 5 nM | inhibition at 10 µM (hERG (KCNH2) [18]): 19%; inhibition at 1 µM (hERG (KCNH2) [19]): 7%
CS[C@@]1(C(=O)Nc2ccc3[nH]nc(-c4ccc(F)cc4)c3c2)CCN(CC(=O)N2CCN(c3ccc(-c4ncccn4)cc3F)CC2)C1 |  |  | 663 nM |  |  | 114 nM | 
CS[C@@]1(C(=O)Nc2ccc3[nH]nc(-c4ccc(F)cc4)c3c2)CCN(CC(=O)N2CC=C(c3ccc(-c4ncccn4)cc3)CC2)C1 | 45 nM |  | 41 nM | 118 nM |  |  | AUC [21]: 25.9 to 26 µM·h; CLH [22]: 7 µL/min; CLH [23]: 18 µL/min; AUC [24]: 17 µM·h
COc1cc(-c2n[nH]c3ccc(NC(=O)[C@]4(SC)CCN(CC(=O)N5CC=C(c6ccc(-c7ncn(C)n7)cc6)CC5)C4)cc23)ccn1 | 10 nM |  | 7.9 nM | 80 nM |  | 1.7 nM | inhibition at 10 µM (hERG (KCNH2) [18]): 7.2%; inhibition at 1 µM (hERG (KCNH2) [19]): 0.8%
CS[C@@]1(C(=O)Nc2ccc3[nH]nc(-c4ccc(F)cc4)c3c2)CCN(CC(=O)N2CC=C(c3ncc(-c4ncccn4)s3)CC2)C1 | > 111 nM | 10% | 207 nM | 543 nM | -5% | 36 nM | 
CS[C@]1(C(=O)Nc2ccc3[nH]nc(-c4ccc(OC(C)C)nc4)c3c2)CCN(CC(=O)N2CC=C(c3ccc(-c4ncn(C)n4)cc3)CC2)C1 | > 1000 nM |  |  |  |  | 729 nM | inhibition at 10 µM (hERG (KCNH2) [18]): 10%; inhibition at 1 µM (hERG (KCNH2) [19]): 6%
CS[C@@]1(C(=O)Nc2ccc3[nH]nc(-c4ccnc(OC(C)C)c4)c3c2)CCN(CC(=O)N2CC=C(c3ccc(-c4ncn(C)n4)cc3)CC2)C1 | 41 nM | 10% | 74 nM | 99 nM | 3% | 27 nM | 
CS[C@@]1(C(=O)Nc2ccc3[nH]nc(-c4ccc5c(c4)OCO5)c3c2)CCN(CC(=O)N2CC=C(c3ccc(-c4ncccn4)cc3)CC2)C1 | 29 nM | 16% | 45 nM | 77 nM | 19% | 13 nM | AUC [21]: 106 µM·h; IC50 (Cytochrome P450 3A4): 300 nM
CS[C@@]1(C(=O)Nc2ccc3[nH]nc(-c4ccc(F)cc4)c3c2)CCN(CC(=O)N2CC=C(c3ccc(-c4ncccn4)cc3F)CC2)C1 | 83 nM | 32% | 135 nM | 209 nM | 11% | 25 nM | 
CS[C@@]1(C(=O)Nc2ccc3[nH]nc(-c4ccc(OC(C)C)nc4)c3c2)CCN(CC(=O)N2CC=C(c3ccc(-c4ncccn4)cc3)CC2)C1 | 57 nM | 37% | 93 nM | 79 nM | 25% | 13 nM | 
CCNc1nnc(-c2ccc(C3=CCN(C(=O)CN4CC[C@@](SC)(C(=O)Nc5ccc6[nH]nc(-c7ccc(F)cc7)c6c5)C4)CC3)cc2)o1 | 22 nM | 6% | 17 nM | 49 nM | -3% | 5 nM | 
CC(C)Oc1ccc(-c2n[nH]c3ccc(NC(=O)[C@]4(S(C)(=O)=O)CCN(CC(=O)N5CC=C(c6ccc(-c7ncn(C)n7)cc6)CC5)C4)cc23)cn1 | 86 nM |  | 228 nM | 243 nM |  | 29 nM | inhibition at 10 µM (hERG (KCNH2) [18]): 5%; inhibition at 1 µM (hERG (KCNH2) [19]): 4%
CCNc1ncc(-c2ccc(C3=CCN(C(=O)CN4CC[C@@](SC)(C(=O)Nc5ccc6[nH]nc(-c7ccnc(C)c7)c6c5)C4)CC3)cc2)s1 | 30 nM | -3% | 34 nM | 131 nM | -7% | 6 nM | 
CS[C@@]1(C(=O)Nc2ccc3[nH]nc(-c4ccc(F)cc4)c3c2)CCN(CC(=O)N2CC=C(c3nc(-c4ncccn4)cs3)CC2)C1 |  | 19% | 952 nM |  | 6% | 291 nM | 
O=C(Nc1ccc2[nH]nc(-c3ccncc3)c2c1)[C@@H]1CCN(CC(=O)N2CCN(c3ccc(-c4ncccn4)cc3)CC2)C1 | 16 nM |  | 8 nM | 59 nM |  |  | MRT [25]: 1.6 h; half-life [26]: 1.5 h; clearance [27]: 122 mL/min/kg
CS[C@@]1(C(=O)Nc2ccc3[nH]nc(-c4ccc(F)cc4)c3c2)CCN(CC(=O)N2CCC(c3ccc(-c4ncccn4)cc3)CC2)C1 | 76 nM | 12% | 43 nM | 245 nM | 22% | 23 nM | 

— ChEMBL document CHEMBL4196128 (ACS Med Chem Lett, 2018)
